The data set can be described thus: Skin permeability, Franz diffusion cell system. To be noted: human cadaver skin, fluorescence, up to 24 hours. It is filed as in vitro ADME. The text has this: In a Franz diffusion cell system, a formulation including a drug is applied to a donor chamber while a receptor chamber is filled with physiological saline such as PBS (phosphate buffered saline), with a permeable layer, such as a permeable membrane, animal skin or cell culture skin, fixed between the donor chamber and the receptor chamber. Skin permeability can be determined by measuring the amount of the drug diffusing from the donor chamber to the receptor chamber.
In a Franz diffusion cell system, 5 ml of PBS (pH 7.4 containing 0.05% polysorbate 80) was added to the receptor chamber, a human cadaver skin with a size of 1.5×1.5 cm was fixed between the receptor chamber and the donor chamber, and each sample was placed in a donor chamber. The conditions of 37° C. and 600 rpm were set in the receptor chamber and 500 μl of the sample was recovered each time at sample times of 0.5, 1, 2, 4, 8, 12, 18, and 24 hours. The drug passing through the skin was quantitated according to time by HPLC. The result is depicted in FIG. 18.
To a donor chamber, chitosan-coated nanocapsules containing 2 wt % of Nile red (Nile red@ChiNC) were added in an amount of 2 mg/ml. As a control, Nile red alone, or Nile red-containing nanocapsules without a chitosan coating (Nile red@PluNC) were employed. […] Fluorescence in the samples taken at the predetermined times was measured. […]

One molecule from US20220054425A1, “NANOCAPSULES COATED WITH CHITOSAN AND USE THEREOF” (SKINMED CO., LTD., priority 2018, published 2022) can be followed below.

Consider `CCN(CC)c1ccc2nc3c4ccccc4c(=O)cc-3oc2c1` [Nile red], for which the “skin permeability of Nile red” value is “almost did not penetrate into the skin”.
